Data from ChEMBL document CHEMBL1136115, “Constrained phytoestrogens and analogues as ERbeta selective ligands” (Bioorg Med Chem Lett, 2003).

What was measured:
Estrogen receptor = target: T1, Estrogen receptor (Homo sapiens, UniProt P03372)
T1 sequence (P03372 whole entry): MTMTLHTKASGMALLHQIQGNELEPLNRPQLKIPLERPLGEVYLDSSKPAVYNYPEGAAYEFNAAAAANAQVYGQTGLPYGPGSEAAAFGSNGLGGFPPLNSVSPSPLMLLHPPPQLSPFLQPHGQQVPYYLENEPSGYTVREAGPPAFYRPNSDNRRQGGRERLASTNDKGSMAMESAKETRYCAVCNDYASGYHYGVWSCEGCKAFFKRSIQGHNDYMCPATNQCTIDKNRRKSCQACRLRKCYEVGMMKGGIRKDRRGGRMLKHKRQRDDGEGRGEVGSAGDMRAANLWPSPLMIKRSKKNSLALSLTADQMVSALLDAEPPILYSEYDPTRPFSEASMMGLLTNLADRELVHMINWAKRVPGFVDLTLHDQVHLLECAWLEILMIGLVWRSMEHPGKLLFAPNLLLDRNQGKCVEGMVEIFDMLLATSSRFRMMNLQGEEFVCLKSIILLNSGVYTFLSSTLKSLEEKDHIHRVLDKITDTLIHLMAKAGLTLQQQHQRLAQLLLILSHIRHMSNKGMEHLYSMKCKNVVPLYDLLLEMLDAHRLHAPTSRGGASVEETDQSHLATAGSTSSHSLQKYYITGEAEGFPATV
Description: Binding affinity towards human estrogen receptor alpha(ERalpha)

Estrogen receptor beta [1] = target: T2, Estrogen receptor beta (Homo sapiens, UniProt Q92731)
Description: Binding affinity towards human estrogen receptor beta (ERbeta)

[2] = target: T3, Estrogen receptor (Homo sapiens) (UniProt P03372); assay: Effective dose in ERalpha-MCF-7 cells; assay type: functional, cell-based
T3 sequence (whole entry): T1 sequence (P03372 whole entry)

Estrogen receptor beta [3] = target: T2, Estrogen receptor beta; assay: Effective dose in metallothionein-II using metallothionein assay
[4] = target: T3, Estrogen receptor (Homo sapiens); assay: Efficacy in ER alpha-MCF-7 cells; assay type: functional, cell-based

T2 sequence (Q92731 whole entry): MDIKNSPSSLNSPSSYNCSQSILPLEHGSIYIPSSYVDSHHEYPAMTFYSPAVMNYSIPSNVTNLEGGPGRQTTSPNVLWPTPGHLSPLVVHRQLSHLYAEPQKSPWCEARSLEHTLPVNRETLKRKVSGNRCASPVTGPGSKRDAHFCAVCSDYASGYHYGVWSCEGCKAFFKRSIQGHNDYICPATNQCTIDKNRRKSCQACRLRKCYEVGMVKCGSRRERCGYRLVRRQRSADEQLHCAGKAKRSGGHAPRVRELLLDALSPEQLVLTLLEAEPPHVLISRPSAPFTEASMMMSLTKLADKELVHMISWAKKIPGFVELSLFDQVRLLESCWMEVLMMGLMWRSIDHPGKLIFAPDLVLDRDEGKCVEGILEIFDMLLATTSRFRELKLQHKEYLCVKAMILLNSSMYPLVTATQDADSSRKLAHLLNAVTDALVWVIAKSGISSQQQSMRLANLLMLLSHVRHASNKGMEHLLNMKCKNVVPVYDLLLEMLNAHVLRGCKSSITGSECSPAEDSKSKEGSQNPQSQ

Compound: O=c1c2ccc(O)cc2oc2c1oc1c(Br)cc(O)cc12
- IC50 (Estrogen receptor): > 5000 nM
- IC50 (Estrogen receptor beta [1]): 1740 nM

Compound: O=c1c2ccc(O)cc2oc2c1oc1ccccc12
- IC50 (Estrogen receptor): > 5000 nM

Compound: N#Cc1cc(O)cc2c1oc1c(=O)c3c(O)cc(O)cc3oc12
- IC50 (Estrogen receptor): 1550 nM
- IC50 (Estrogen receptor beta [1]): 1340 nM

Compound: N#Cc1cc(O)cc2c1oc1c(=O)c3ccc(O)cc3oc12
- IC50 (Estrogen receptor): > 5000 nM
- IC50 (Estrogen receptor beta [1]): > 5000 nM

Compound: O=c1c2ccccc2oc2c1oc1cc(O)ccc12
- IC50 (Estrogen receptor): > 5000 nM

Compound: O=c1c2c(O)cc(O)cc2oc2oc3cc(O)ccc3c12
- IC50 (Estrogen receptor beta [1]): 1.7 nM

Compound: O=c1c2cc(O)ccc2oc2c1oc1ccc(O)cc12
- IC50 (Estrogen receptor): 180 nM

Compound: O=c1c2oc3ccc(O)cc3c2oc2cc(O)cc(O)c12
- ED50 [2]: > 500 nM
- ED50 (Estrogen receptor beta [3]): 18 nM
- IC50 (Estrogen receptor beta [1]): 42 nM
- Efficacy [4]: 58%

Compound: O=c1c2oc3c(Br)cc(O)cc3c2oc2cc(O)cc(O)c12
- IC50 (Estrogen receptor): 1260 nM
- IC50 (Estrogen receptor beta [1]): 343 nM
